# Assay results taken from PubChem BioAssay AID330 (DTP/NCI, 2004).
# Values joined by “and” are separate entries in the source; they are usually repeats but may differ in a detail not shown here. Identical values can stand only once. Toxic doses and inconclusive results are not listed.
# System: P388 leukemia ip, CD2F1 mice, survival T/C
# Assay: NCI In Vivo Anticancer Drug Screen. Data for tumor model P388 Leukemia (intraperitoneal) in CD2F1 (CDF1) mice
# Settings: endpoint: median survival time, higher = longer survival
# Method in brief: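 Mice carrying the transplanted tumor received test compound or vehicle. Survival was recorded in each group, and the value is the treated-group measurement divided by that of the vehicle-treated control group.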
# [1] = dose: 60.0 mg/kg/injection, schedule: Q01DX005 (ip), vehicle: Klucel (hydroxypropylcellulose) (HPC)
# [2] = dose: 120.0 mg/kg/injection, schedule: Q01DX005 (ip), vehicle: Klucel (hydroxypropylcellulose) (HPC)
# [3] = dose: 50.0 mg/kg/injection, schedule: Q01DX005 (ip), vehicle: saline with Tween-80
# [4] = dose: 100.0 mg/kg/injection, schedule: Q01DX005 (ip), vehicle: saline with Tween-80
# [5] = dose: 200.0 mg/kg/injection, schedule: Q01DX005 (ip), vehicle: saline with Tween-80
# [6] = dose: 200.0 mg/kg/injection, schedule: Q01DX009 (ip), vehicle: saline with Tween-80
# [7] = dose: 50.0 mg/kg/injection, schedule: Q01DX009 (ip), vehicle: saline with Tween-80
# [8] = dose: 100.0 mg/kg/injection, schedule: Q01DX009 (ip), vehicle: saline with Tween-80
structure (smiles),measurement,setting,value
O=C(CCBr)NCCNC(=O)CCBr,T/C,"dose: 43.75 mg/kg/injection, schedule: Q01DX009 (ip), vehicle: saline",105 % of control
same,T/C,"dose: 87.5 mg/kg/injection, schedule: Q01DX009 (ip), vehicle: saline",103 % of control
same,T/C,"dose: 175.0 mg/kg/injection, schedule: Q01DX009 (ip), vehicle: saline",108 % of control
O=C(CCC(=O)Nc1ccc2[nH]c3ccccc3c(=O)c2c1)Nc1ccc2[nH]c3ccccc3c(=O)c2c1,T/C,[1],99 % of control
same,T/C,[2],96 % of control
same,T/C,"dose: 240.0 mg/kg/injection, schedule: Q01DX005 (ip), vehicle: Klucel (hydroxypropylcellulose) (HPC)",97 % of control
O=C(O)CCCc1cccc2c1CCCC2,T/C,"dose: 50.0 mg/kg/injection, schedule: Q01DX005 (ip), vehicle: Klucel (hydroxypropylcellulose) (HPC)",102 % of control
same,T/C,"dose: 100.0 mg/kg/injection, schedule: Q01DX005 (ip), vehicle: Klucel (hydroxypropylcellulose) (HPC)",100 % of control
same,T/C,"dose: 200.0 mg/kg/injection, schedule: Q01DX005 (ip), vehicle: Klucel (hydroxypropylcellulose) (HPC)",100 % of control
O=C(OC(c1ccccc1)c1ccccc1)C1CSCN1C(=O)OCc1ccccc1[N+](=O)[O-] (stereo unspecified),T/C,[3],108 % of control
same,T/C,[4],110 % of control
same,T/C,[5],100 % of control
N=c1ccn2c(n1)OC1C(O)C(COS(=O)OC3C(CO)OC4C3Oc3nc(=N)ccn34)OC12 (stereo unspecified),T/C,[6],112 % of control
O=S1(=O)CC2(N3CCOCC3)CCCCCC21 (stereo unspecified),T/C,"dose: 100.0 mg/kg/injection, schedule: Q04DX003 (ip), vehicle: saline with Tween-80",103 % of control
same,T/C,"dose: 200.0 mg/kg/injection, schedule: Q04DX003 (ip), vehicle: saline with Tween-80",100 % of control
same,T/C,"dose: 400.0 mg/kg/injection, schedule: Q04DX003 (ip), vehicle: saline with Tween-80",100 % of control
CC1(C)OC(=O)C(CCc2ccncc2)(CCc2ccncc2)C(=O)O1,T/C,[7],115 % of control
same,T/C,[8],104 % of control
same,T/C,[6],106 % of control
Cc1ccc(-n2c(=O)c3[nH]c4ccccc4sc=3c2=O)cc1,T/C,[3],102 % of control
same,T/C,[4],95 % of control
same,T/C,[5],91 % of control
Oc1ccc(SCc2ccc(NCc3ccccc3)cc2)cc1,T/C,[7],113 % of control and 117 % of control
same,T/C,[8],119 % of control
CCOC(=O)CC(=O)c1ccoc1,T/C,[3],110 % of control
same,T/C,[4],105 % of control
same,T/C,[5],110 % of control
Clc1c(CBr)ccc(CBr)c1Cl,T/C,"dose: 12.5 mg/kg/injection, schedule: Q01DX009 (ip), vehicle: saline with Tween-80",100 % of control
same,T/C,"dose: 25.0 mg/kg/injection, schedule: Q01DX009 (ip), vehicle: saline with Tween-80",100 % of control
same,T/C,[7],115 % of control
COC(=O)CCC(=O)C(C#N)c1ccc(CC#N)cc1 (stereo unspecified),T/C,"dose: 12.5 mg/kg/injection, schedule: Q01DX005 (ip), vehicle: saline with Tween-80",96 % of control
same,T/C,"dose: 25.0 mg/kg/injection, schedule: Q01DX005 (ip), vehicle: saline with Tween-80",98 % of control
same,T/C,[3],102 % of control and 95 % of control
C=C1CCC2C(C)(C(=O)O)CCCC2(C)C1CCc1ccoc1 (stereo unspecified),T/C,"dose: 12.75 mg/kg/injection, schedule: Q01DX005 (ip), vehicle: Klucel + Tween-80",102 % of control
same,T/C,"dose: 25.5 mg/kg/injection, schedule: Q01DX005 (ip), vehicle: Klucel + Tween-80",96 % of control
same,T/C,"dose: 51.0 mg/kg/injection, schedule: Q01DX005 (ip), vehicle: Klucel + Tween-80",110 % of control
same,T/C,"dose: 102.0 mg/kg/injection, schedule: Q01DX005 (ip), vehicle: Klucel + Tween-80",110 % of control
Cc1cc(C)c(-c2cc(C(O)C3OC4OC(C)(C)OC4C3O)on2)c(C)c1 (stereo unspecified),T/C,[3],108 % of control
same,T/C,[4],90 % of control
S=C(N/N=C/c1ccccn1)SCc1ccccc1,T/C,"dose: 50.0 mg/kg/injection, schedule: Q01DX009 (ip), vehicle: Klucel (hydroxypropylcellulose) (HPC)",101 % of control
same,T/C,"dose: 100.0 mg/kg/injection, schedule: Q01DX009 (ip), vehicle: Klucel (hydroxypropylcellulose) (HPC)",104 % of control
same,T/C,"dose: 200.0 mg/kg/injection, schedule: Q01DX009 (ip), vehicle: Klucel (hydroxypropylcellulose) (HPC)",100 % of control
COc1ccc(C(c2cc3c(cc2O)OCO3)N2CCCC2)c(OC)c1 (stereo unspecified),T/C,[1],111 % of control
same,T/C,[2],118 % of control
O=C1Nc2ccccc2C1NC(=S)Nc1ccccc1 (stereo unspecified),T/C,"dose: 60.0 mg/kg/injection, schedule: Q01DX005 (ip), vehicle: saline with Tween-80",96 % of control
same,T/C,"dose: 120.0 mg/kg/injection, schedule: Q01DX005 (ip), vehicle: saline with Tween-80",94 % of control
